Measurements from patent publication US20200078468A1, “NEUROTENSIN RECEPTOR BINDING CONJUGATES AND FORMULATIONS THEREOF” (priority 2016, published 2020).
Read-outs that look alike come from different tables or passages of the source. Square brackets hold non-standard residues; d marks the D form. Peptide text beside a SMILES is read from it. * marks the point of attachment. MMAE(N-CO2CH2CH2S) = CC[C@H](C)[C@@H]([C@@H](CC(=O)N1CCC[C@H]1[C@H](OC)[C@@H](C)C(=O)N[C@H](C)[C@@H](O)c1ccccc1)OC)N(C)C(=O)[C@@H](NC(=O)[C@H](C(C)C)N(C)C(=O)OCCS*)C(C)C; Pen = CC(C)(S)[C@H](N)C(=O)O; Tle = CC(C)(C)[C@H](N)C(=O)O

Legend:
[1] = system: HT-29 cells (human colon cancer cells); assay: inhibition of HT29 cell proliferation (Cell Titer Glo 2.0); assay type: cell-based; details: 72 h
Procedure: Conjugates were assessed in an in vitro assay evaluating inhibition of cell proliferation. HT-29 cells (human colon cancer cells) were seeded in white walled 96-well plates at 10,000 cells per well in 100 μl McCoy's 5a (Invitrogen) media supplemented with 10% Fetal Bovine Serum (Invitrogen). After allowing cells to settle overnight, 5 μl of 20× test article was added to each well in replicate and incubated for 72 h. 72 hours after addition of compound, plates were removed from incubator and allowed to cool to room temperature. 50 μl of Cell Titer Glo 2.0 (Promega) was added to each well, incubated for 15 minutes, and plates were read on Glomax luminometer (Promega) using the Cell Titer Glo protocol. Raw luminometer readings for each plate were transformed by dividing the experimental well into the mean of untreated control wells. This is reported as ratio of untreated, and is plotted with Prism 6 software (Graph Pad) and fitted with a 4-parameter, variable slope curve.
Conjugates are assessed for receptor-dependent cytotoxicity by the difference between an NTSR1-targeting conjugate, and the corresponding conjugate with the same linker moiety and active agent where the NTSR1-targeting domain has been scrambled.

human NTSR1 = target: T1, human NTSR1 (Homo sapiens, UniProt P30989); assay: radioligand-receptor binding assay, [125I] labeled neurotensin (Eurofins Panlabs)
T1 construct: host or cells: HEK-293 cells (membrane preparations)
In short: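 Membranes from HEK-293 cells expressing human NTSR1 incubated 45 min with 0.02 nM [125I]neurotensin and conjugate in 6-point 3-fold dilutions from 100 or 10 nM; bound radioactivity counted after filtration. IC50 by nonlinear regression, converted to Ki via Cheng–Prusoff using historical ligand Kd.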

[2] = system: SW48 (human colon cancer cells); assay: inhibition of SW48 cell proliferation (CellTiter Glo); assay type: cell-based; details: 72 hrs, read-out: SW-48 proliferation IC50
In short: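 Cells plated at 5,000/well and grown 24 hrs were exposed to conjugates for 72 hrs at 37° C, 5% CO2, in a ten-point three-fold series starting at 10 μM; vehicle was 0.01% DMSO. Proliferation was read by CellTiter Glo. % inhibition was taken relative to vehicle, with IC50 from four-parameter nonlinear regression.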

[3] = [125I] neurotensin 0.02 nM, membranes from NTSR1 expressing HEK-293 cells, 45 minute incubation, Cheng and Prusoff, read-out: NTSR1 binding Ki

T1 sequence (P30989 whole entry): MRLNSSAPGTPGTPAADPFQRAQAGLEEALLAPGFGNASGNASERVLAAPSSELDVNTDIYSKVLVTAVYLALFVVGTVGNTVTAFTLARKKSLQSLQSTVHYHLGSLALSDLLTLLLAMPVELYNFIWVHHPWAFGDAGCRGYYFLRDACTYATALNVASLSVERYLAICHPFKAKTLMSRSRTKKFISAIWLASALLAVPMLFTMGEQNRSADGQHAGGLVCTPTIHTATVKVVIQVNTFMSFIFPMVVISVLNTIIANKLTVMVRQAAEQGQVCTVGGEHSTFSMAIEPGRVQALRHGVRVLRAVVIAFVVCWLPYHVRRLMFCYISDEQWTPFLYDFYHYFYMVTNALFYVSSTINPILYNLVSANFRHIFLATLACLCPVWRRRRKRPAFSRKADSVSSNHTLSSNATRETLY

SMILES	IC50 ([1]; NTSR1 targeted compound) [nM]	Ki (human NTSR1) [nM]	IC50 ([2]; NTSR1 targeted compound) [nM]	Ki (human NTSR1; [3]) [nM]	IC50 ([1]; NTSR1 scrambled compound) [nM]	IC50 ([2]; NTSR1 scrambled compound) [nM]
CC[C@H](C)[C@@H]([C@@H](CC(=O)N1CCC[C@H]1[C@H](OC)[C@@H](C)C(=O)N[C@H](C)[C@@H](O)c1ccccc1)OC)N(C)C(=O)[C@@H](NC(=O)[C@H](C(C)C)N(C)C(=O)OCc1ccc(NC(=O)[C@H](CCCNC(N)=O)NC(=O)[C@@H](NC(=O)CCCCCN2C(=O)CC(SCCC(=O)NCCCC[C@H](NC(C)=O)C(=O)N3CCC[C@H]3C(=O)N(C)[C@@H](CCCNC(=N)N)C(=O)N[C@@H](CCCNC(=N)N)C(=O)N3CCC[C@H]3C(=O)N[C@@H](Cc3ccc(O)cc3)C(=O)N[C@H](C(=O)N[C@@H](CC(C)C)C(=O)O)C(C)(C)C)C2=O)C(C)C)cc1)C(C)C (stereo partly drawn) [Compound 54]	6.2	1.45	22			
CC[C@H](C)[C@@H]([C@@H](CC(=O)N1CCC[C@H]1[C@H](OC)[C@@H](C)C(=O)N[C@H](C)[C@@H](O)c1ccccc1)OC)N(C)C(=O)[C@@H](NC(=O)[C@H](C(C)C)N(C)C(=O)OCCSSC(C)(C)[C@H](NC(C)=O)C(=O)N1CCC[C@H]1C(=O)N[C@@H](CCCNC(=N)N)C(=O)N[C@@H](CCCNC(=N)N)C(=O)N1CCC[C@H]1C(=O)N[C@@H](Cc1ccc(O)cc1)C(=O)N[C@H](C(=O)N[C@@H](CC(C)C)C(=O)O)C(C)(C)C)C(C)C [Compound 55] (Ac-[Pen](MMAE(N-CO2CH2CH2S))PRRPY[Tle]L-OH)	1.9		13	1.53		
CC[C@H](C)[C@@H]([C@@H](CC(=O)N1CCC[C@H]1[C@H](OC)[C@@H](C)C(=O)N[C@H](C)[C@@H](O)c1ccccc1)OC)N(C)C(=O)[C@@H](NC(=O)[C@H](C(C)C)N(C)C(=O)OCCSSCCC(=O)NCCCC[C@H](NC(C)=O)C(=O)N1CCC[C@H]1C(=O)N(C)[C@@H](CCCNC(=N)N)C(=O)N[C@@H](CCCNC(=N)N)C(=O)N1CCC[C@H]1C(=O)N[C@@H](Cc1ccc(O)cc1)C(=O)N[C@H](C(=O)N[C@@H](CC(C)C)C(=O)O)C(C)(C)C)C(C)C [Compound 56]	0.42		4.3	1.15		
COc1cc2cc(c1Cl)N(C)C(=O)C[C@H](OC(=O)[C@H](C)N(C)C(=O)CCSC1CC(=O)N(CCCNC(=O)CNC(=O)[C@H](CC(C)C)NC(=O)[C@H](Cc3ccccc3)NC(=O)CNC(=O)CCC(=O)NCCCC[C@H](NC(C)=O)C(=O)N3CCC[C@H]3C(=O)N[C@@H](CC(C)C)C(=O)N3CCC[C@H]3C(=O)N(C)[C@@H](CCCNC(=N)N)C(=O)N[C@H](C(=O)N[C@@H](CCCNC(=N)N)C(=O)N[C@@H](Cc3ccc(O)cc3)C(=O)O)C(C)(C)C)C1=O)[C@]1(C)O[C@H]1[C@H](C)[C@@H]1C[C@@](O)(NC(=O)O1)[C@H](OC)/C=C/C=C(\C)C2 (stereo partly drawn) [Compound 79]				980	97	76
